Measured values published in US5710174A, “Factor XIIIA inhibitor” (Zymo Genetics, Inc., priority 1995, dated 1998).
Like-named read-outs stand apart in the source and are kept apart here.

Legend:
[1] = biological target: T1, FXIIIa (Homo sapiens, UniProt P00488); experiment: Fibrinogen clotting assay, FXIIIa (gamma-gamma bands scanned); type: biochemical; conditions: read-out: % FXIIIa Inhibition
T1 sequence (P00488 39-732 limits assumed): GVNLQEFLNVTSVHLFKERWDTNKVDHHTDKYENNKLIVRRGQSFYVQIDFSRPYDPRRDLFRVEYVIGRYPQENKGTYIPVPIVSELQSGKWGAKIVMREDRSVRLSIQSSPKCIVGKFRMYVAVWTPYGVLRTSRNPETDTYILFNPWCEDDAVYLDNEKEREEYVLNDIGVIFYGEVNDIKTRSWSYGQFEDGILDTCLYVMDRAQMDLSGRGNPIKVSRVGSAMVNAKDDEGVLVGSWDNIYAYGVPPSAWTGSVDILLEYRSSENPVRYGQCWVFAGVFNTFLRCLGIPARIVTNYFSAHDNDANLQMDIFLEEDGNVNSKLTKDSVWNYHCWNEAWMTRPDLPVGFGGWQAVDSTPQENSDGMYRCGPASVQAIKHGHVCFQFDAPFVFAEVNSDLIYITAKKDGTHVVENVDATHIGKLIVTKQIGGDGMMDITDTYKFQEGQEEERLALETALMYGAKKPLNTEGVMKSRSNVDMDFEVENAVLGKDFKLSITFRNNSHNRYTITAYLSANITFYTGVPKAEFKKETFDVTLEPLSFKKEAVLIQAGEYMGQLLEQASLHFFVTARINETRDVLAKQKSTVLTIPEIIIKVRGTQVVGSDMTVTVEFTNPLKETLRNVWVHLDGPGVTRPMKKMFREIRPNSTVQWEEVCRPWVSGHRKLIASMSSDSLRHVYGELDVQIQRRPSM
Protocol: (§1) Clots were formed in 1.5 ml Eppendorf tubes by adding reagents to give the following final assay concentrations in a total volume of 100 μl: 2 mg/ml FXIII-free fibrinogen purified on a rabbit anti-FXIII column (Enzyme Research Labs); 20 mM CaCl2; 1 unit/ml thrombin (bovine, Enzyme Research Labs); and either 1 μg/ml FXIIIa (recombinant human FXIIIa2 (ZymoGenetics)) or 20 μg/ml tTG (Sigma) in 120 mM NaCl plus 25 mM Tris at about pH 7.2. In addition, 10 μl of one of the following was added to each tube in varying concentrations to determine a dose response: iodoacetamide, ZG-1400a or cerulenin. The final reaction volume in each Eppendorf tube was adjusted to 100 μl with 120 mMNaCl plus 25 mM Tris at about pH 7.2.
(§2) A positive (complete cross-linking) control contained fibrinogen, enzyme (FXIIIa or tTG), calcium, and thrombin at final assay concentrations listed above, and was tested in the absence of any inhibitor. A negative (no cross-linking) control contained a solution of FXIII-free fibrinogen, thrombin and 20 μM EDTA [(ethylene dinitrilo)tetraacetic acid, disodium salt, dihydrate (J. T. Baker, Phillipsburg, N.J.)] in the absence of calcium and enzyme. Both positive and negative controls contained a final DMSO concentration of 1%. The FXIIIa-treated clots and their controls were incubated for about 10 min at about 37° C., while the tTG-treated clots and their controls were incubated for about 4 h at about 37° C. After incubation, all of the clots and controls were frozen to quench reactions.
(§3) Frozen clots and controls were boiled for about 3 min, centrifuged at 14,000 RPM for 5 min, and then the supernatant was removed. The clots were resuspended in 100 μl lysis buffer and incubated overnight at 37° C. The lysis buffer Contained 10M urea, 10 mM EDTA, 1% sodium dodecyl sulfate ("SDS"), and 1% 2-mercaptoethanol. After incubation, approximately 5 μl of each sample was brought to a final volume of 20 μl with a reducing sample buffer (containing 125 mM Tris, pH 6.8, 20% glycerol, 4% SDS, 10% 2-mercaptoethanol, and 0.025% bromophenol blue), and applied to 4-15% gradient gels (Integrated Separation Systems, Natick, Mass.) for polyacrylamide electrophoresis (PAGE) at 200 volts for approximately 1 h or until the tracking dye reached the bottom of the gel.
(§4) After staining with Coomassie blue, the alpha, beta, and gamma chains of fibrin were visualized as bands on the gel. The presence of FXIIIa-catalyzed fibrin cross-linking was observed by the appearance of a gamma-gamma dimer, and the disappearance of the monomeric gamma band from the gels. The tTG cross-linking occurs by formation of alpha chain polymers and alpha2 -gamma oligomers. Since there are many bands, they are difficult to visualize. A better indication of tTG cross-linking was the disappearance of the monomeric alpha band from the gels. In addition, the gamma band was reduced, but to a lesser degree than in FXIIIa cross-linked clots.
(§5) The gels were also scanned on a densitometer (Bio Image Whole Band Analyzer, Millipore Corp., Bedford, Mass.). The relative intensity of gamma-gamma bands were scanned and compared for FXIIIa inhibition, while alpha bands were scanned and compared for tTG inhibition. No cross-linkingwas detected in the negative controls containing only FXIII-free fibrinogen thrombin and DMSO. […] The inhibition results obtained from PAGE of samples prepared as described above, and containing ZG-1400a at 100 μM and 10 μM, or cerulenin or iodoacetamide at 1 mM, 100 μM, and 10 μM, are shown in Table 2.

[2] = biological target: T2, tTG (Cavia cutleri, UniProt P08587); experiment: Fibrinogen clotting assay, tTG (alpha bands scanned); type: biochemical; conditions: read-out: % tTG Inhibition
T2 construct: purchased Sigma
T2 sequence (P08587 1-690): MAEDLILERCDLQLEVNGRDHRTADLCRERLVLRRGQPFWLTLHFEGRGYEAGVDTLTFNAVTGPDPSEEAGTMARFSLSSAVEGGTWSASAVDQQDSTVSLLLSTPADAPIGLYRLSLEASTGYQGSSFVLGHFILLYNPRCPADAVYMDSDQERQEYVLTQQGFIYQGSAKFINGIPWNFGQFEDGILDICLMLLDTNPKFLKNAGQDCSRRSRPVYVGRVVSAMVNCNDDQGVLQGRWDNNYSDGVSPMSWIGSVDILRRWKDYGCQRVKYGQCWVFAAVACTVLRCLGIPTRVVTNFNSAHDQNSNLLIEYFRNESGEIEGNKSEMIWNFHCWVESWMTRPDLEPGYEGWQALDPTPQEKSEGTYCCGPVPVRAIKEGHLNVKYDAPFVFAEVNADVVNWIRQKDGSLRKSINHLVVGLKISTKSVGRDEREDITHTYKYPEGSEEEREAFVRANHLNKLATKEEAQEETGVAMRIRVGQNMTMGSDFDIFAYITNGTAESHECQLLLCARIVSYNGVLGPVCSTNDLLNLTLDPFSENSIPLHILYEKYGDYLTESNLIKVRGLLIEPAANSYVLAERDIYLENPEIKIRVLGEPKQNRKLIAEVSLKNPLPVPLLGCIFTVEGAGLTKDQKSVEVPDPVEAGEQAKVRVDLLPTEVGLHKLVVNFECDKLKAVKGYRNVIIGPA
Protocol: as §1, §2, §3, §4, §5

[3] = 10 μM, gamma-gamma bands, densitometer
[4] = 100 μM, gamma-gamma bands, densitometer
[5] = 10 μM, alpha bands, densitometer
[6] = 100 μM, alpha bands, densitometer

Compound | inhibition at 10 µM [1] [%] | inhibition at 100 µM [1] [%] | inhibition at 1000 µM [1] [%] | inhibition at 10 µM [2] [%] | inhibition at 100 µM [2] [%] | inhibition at 1000 µM [2] [%] | inhibition at 10 µM [1, 3] [%] | inhibition at 100 µM [1, 4] [%] | inhibition at 1000 µM ([1]; 1 mM, gamma-gamma bands, densitometer) [%] | inhibition at 10 µM [2, 5] [%] | inhibition at 100 µM [2, 6] [%] | inhibition at 1000 µM ([2]; 1 mM, alpha bands, densitometer) [%]
NC(=O)CI [Iodoacetamide, iodoacetamide] | 66 | 100 | 100 | 72 | 68 | 60 | – | – | – | – | – | –
CC=CCC=CCCC(=O)C1OC1C(N)=O (stereo not shown) [Cerulenin, 2,3-epoxy-4-oxo-7,10-dodecadienamide] | – | – | – | – | – | – | 8 | 38 | 100 | 30 | 79 | 94
C[C@@H]1CCC/C=C\C(=O)Cc2cc(O)cc(O)c2C(=O)O1 [ZG-1400, R(-) enantiomer of cis-resorcylide] | – | – | – | – | – | – | 66 | 100 | – | 80 | 83 | –
